Where “and” joins values, the source holds several entries; their conditions need not be identical. Equal entries are not always repeated.
How the values were obtained:
SfurOBP1 = SfurOBP1 (Sogatella furcifera, UniProt V5T8N5); experiment: biochemical; assay type: binding; settings: for Fluorescence competitive binding assay, fluorescence intensity: OBP1, three replicate columns
In short: (§1)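 First, 2.0 µM protein in 50 mM Tris-HCl (pH 7.4) was titrated with 1-NPN to obtain K1-NPN. Then odorants (2–20 µM final) competed against 2.0 µM 1-NPN, with fluorescence (ex 337 nm) recorded after 2 min. Ki was computed from IC50 via Ki = IC50/(1 + [1-NPN]/K1-NPN).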

SfurOBP11 = SfurOBP11 (Sogatella furcifera, UniProt V5T6E3); experiment: biochemical; assay type: binding
In short: as §1

SfurOBP2 = SfurOBP2 (Sogatella furcifera, UniProt V5T759); experiment: biochemical; assay type: binding
In short: as §1

SfurOBP3 = SfurOBP3 (Sogatella furcifera, UniProt V5T818); experiment: biochemical; assay type: binding; settings: for Fluorescence competitive binding assay, fluorescence intensity: OBP3, three replicate columns
In short: as §1

S. furcifera adults = experiment: Y-tube olfactometer behavioral trials; assay type: in vivo, Sogatella furcifera; settings: odorant 50 µL/L vs hexane; adults
In short: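 Single S. furcifera adults (2 days post-emergence, starved 0.5 h) chose between odorant (100 µL of 50 µL/L on filter paper) and hexane control in a glass Y-tube, charcoal-filtered humidified air 300 mL/min per arm, 25 ± 1 °C, 50% RH. Choice scored if insect passed half an arm and stayed >1 min within 10 min; 45 insects per compound, chi-squared test.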

Sequence of SfurOBP11 (V5T6E3 entry or part of it): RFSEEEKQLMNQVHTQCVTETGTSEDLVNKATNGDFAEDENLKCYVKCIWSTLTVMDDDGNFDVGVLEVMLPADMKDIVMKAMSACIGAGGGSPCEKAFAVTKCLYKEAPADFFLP
Sequence of SfurOBP3 (V5T818 entry or part of it): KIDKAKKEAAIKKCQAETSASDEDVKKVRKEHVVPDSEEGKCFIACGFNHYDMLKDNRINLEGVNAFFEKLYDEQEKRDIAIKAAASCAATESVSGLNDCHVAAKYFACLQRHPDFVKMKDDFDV
Sequence of SfurOBP2 (V5T759 entry or part of it): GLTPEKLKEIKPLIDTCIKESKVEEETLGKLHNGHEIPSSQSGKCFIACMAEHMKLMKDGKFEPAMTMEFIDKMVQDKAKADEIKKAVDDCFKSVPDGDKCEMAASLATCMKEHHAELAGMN
Sequence of SfurOBP1 (V5T8N5 entry or part of it): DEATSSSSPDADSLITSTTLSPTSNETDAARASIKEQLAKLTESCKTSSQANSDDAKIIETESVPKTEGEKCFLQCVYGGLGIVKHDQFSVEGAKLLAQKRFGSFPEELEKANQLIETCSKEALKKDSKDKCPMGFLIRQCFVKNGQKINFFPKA

## C=CC(C)(O)CCC=C(C)CCC=C(C)C (mixture of isomers) [nerolidol]
SfurOBP1; ligand concentration 2 (μM)
  Fluorescence competitive binding assay, fluorescence intensity: 6708 and 6744 and 6934
SfurOBP1; ligand concentration 4 (μM)
  Fluorescence competitive binding assay, fluorescence intensity: 6359 and 8427 and 6473
SfurOBP1; ligand concentration 6 (μM)
  Fluorescence competitive binding assay, fluorescence intensity: 6867 and 6865 and 7375
SfurOBP1; ligand concentration 8 (μM)
  Fluorescence competitive binding assay, fluorescence intensity: 8143 and 7305 and 8959
SfurOBP1; ligand concentration 10 (μM)
  Fluorescence competitive binding assay, fluorescence intensity: 7362 and 11085 and 8523
SfurOBP1; ligand concentration 12 (μM)
  Fluorescence competitive binding assay, fluorescence intensity: 6544 and 7094 and 6753
SfurOBP1; ligand concentration 14 (μM)
  Fluorescence competitive binding assay, fluorescence intensity: 7135 and 7404 and 8089
SfurOBP1; ligand concentration 16 (μM)
  Fluorescence competitive binding assay, fluorescence intensity: 5378 and 6818 and 6356
SfurOBP1; ligand concentration 18 (μM)
  Fluorescence competitive binding assay, fluorescence intensity: 6689 and 7935 and 7391
SfurOBP1; ligand concentration 20 (μM)
  Fluorescence competitive binding assay, fluorescence intensity: 6918 and 6511 and 6565
SfurOBP1; SfurOBP1, protein and 1-NPN both 2.0 µM, competitor 2-20 µM, read-out: IC50
  IC50: > 20 µM
SfurOBP11; SfurOBP11, protein and 1-NPN both 2.0 µM, competitor 2-20 µM, read-out: IC50
  IC50: > 20 µM
SfurOBP11; ligand concentration 2, replicate 1
  Fluorescence intensity, fluorescence competitive binding assay, OBP11: 32108
SfurOBP11; ligand concentration 2, replicate 2
  Fluorescence intensity, fluorescence competitive binding assay, OBP11: 31162
SfurOBP11; ligand concentration 2, replicate 3
  Fluorescence intensity, fluorescence competitive binding assay, OBP11: 30215
SfurOBP11; ligand concentration 4, replicate 1
  Fluorescence intensity, fluorescence competitive binding assay, OBP11: 28342
SfurOBP11; ligand concentration 4, replicate 2
  Fluorescence intensity, fluorescence competitive binding assay, OBP11: 28762
SfurOBP11; ligand concentration 4, replicate 3
  Fluorescence intensity, fluorescence competitive binding assay, OBP11: 29181
SfurOBP11; ligand concentration 6, replicate 1
  Fluorescence intensity, fluorescence competitive binding assay, OBP11: 25372
SfurOBP11; ligand concentration 6, replicate 2
  Fluorescence intensity, fluorescence competitive binding assay, OBP11: 24386
SfurOBP11; ligand concentration 6, replicate 3
  Fluorescence intensity, fluorescence competitive binding assay, OBP11: 25974
SfurOBP11; ligand concentration 8, replicate 1
  Fluorescence intensity, fluorescence competitive binding assay, OBP11: 24916
SfurOBP11; ligand concentration 8, replicate 2
  Fluorescence intensity, fluorescence competitive binding assay, OBP11: 25493
SfurOBP11; ligand concentration 8, replicate 3
  Fluorescence intensity, fluorescence competitive binding assay, OBP11: 26070
SfurOBP11; ligand concentration 10, replicate 1
  Fluorescence intensity, fluorescence competitive binding assay, OBP11: 22613
SfurOBP11; ligand concentration 10, replicate 2
  Fluorescence intensity, fluorescence competitive binding assay, OBP11: 22095
SfurOBP11; ligand concentration 10, replicate 3
  Fluorescence intensity, fluorescence competitive binding assay, OBP11: 23428
SfurOBP11; ligand concentration 12, replicate 1
  Fluorescence intensity, fluorescence competitive binding assay, OBP11: 21169
SfurOBP11; ligand concentration 12, replicate 2
  Fluorescence intensity, fluorescence competitive binding assay, OBP11: 22102
SfurOBP11; ligand concentration 12, replicate 3
  Fluorescence intensity, fluorescence competitive binding assay, OBP11: 22210
SfurOBP11; ligand concentration 14, replicate 1
  Fluorescence intensity, fluorescence competitive binding assay, OBP11: 20351
SfurOBP11; ligand concentration 14, replicate 2
  Fluorescence intensity, fluorescence competitive binding assay, OBP11: 23661
SfurOBP11; ligand concentration 14, replicate 3
  Fluorescence intensity, fluorescence competitive binding assay, OBP11: 21671
SfurOBP11; ligand concentration 16, replicate 1
  Fluorescence intensity, fluorescence competitive binding assay, OBP11: 17887
SfurOBP11; ligand concentration 16, replicate 2
  Fluorescence intensity, fluorescence competitive binding assay, OBP11: 19544
SfurOBP11; ligand concentration 16, replicate 3
  Fluorescence intensity, fluorescence competitive binding assay, OBP11: 17889
SfurOBP11; ligand concentration 18, replicate 1
  Fluorescence intensity, fluorescence competitive binding assay, OBP11: 23369
SfurOBP11; ligand concentration 18, replicate 2
  Fluorescence intensity, fluorescence competitive binding assay, OBP11: 23675
SfurOBP11; ligand concentration 18, replicate 3
  Fluorescence intensity, fluorescence competitive binding assay, OBP11: 24479
SfurOBP11; ligand concentration 20, replicate 1
  Fluorescence intensity, fluorescence competitive binding assay, OBP11: 22182
SfurOBP11; ligand concentration 20, replicate 2
  Fluorescence intensity, fluorescence competitive binding assay, OBP11: 24009
SfurOBP11; ligand concentration 20, replicate 3
  Fluorescence intensity, fluorescence competitive binding assay, OBP11: 23801
SfurOBP2; SfurOBP2, protein and 1-NPN both 2.0 µM, competitor 2-20 µM, read-out: IC50
  IC50: 18.2 µM
SfurOBP2; ligand concentration 2 (unit not given), replicate column 1 of 3
  Fluorescence competitive binding assay, OBP2 (raw fluorescence reading): 16746
SfurOBP2; ligand concentration 2 (unit not given), replicate column 2 of 3
  Fluorescence competitive binding assay, OBP2 (raw fluorescence reading): 14676
SfurOBP2; ligand concentration 2 (unit not given), replicate column 3 of 3
  Fluorescence competitive binding assay, OBP2 (raw fluorescence reading): 15441
SfurOBP2; ligand concentration 4 (unit not given), replicate column 1 of 3
  Fluorescence competitive binding assay, OBP2 (raw fluorescence reading): 14875
SfurOBP2; ligand concentration 4 (unit not given), replicate column 2 of 3
  Fluorescence competitive binding assay, OBP2 (raw fluorescence reading): 15827
SfurOBP2; ligand concentration 4 (unit not given), replicate column 3 of 3
  Fluorescence competitive binding assay, OBP2 (raw fluorescence reading): 16107
SfurOBP2; ligand concentration 6 (unit not given), replicate column 1 of 3
  Fluorescence competitive binding assay, OBP2 (raw fluorescence reading): 14243
SfurOBP2; ligand concentration 6 (unit not given), replicate column 2 of 3
  Fluorescence competitive binding assay, OBP2 (raw fluorescence reading): 15150
SfurOBP2; ligand concentration 6 (unit not given), replicate column 3 of 3
  Fluorescence competitive binding assay, OBP2 (raw fluorescence reading): 15095
SfurOBP2; ligand concentration 8 (unit not given), replicate column 1 of 3
  Fluorescence competitive binding assay, OBP2 (raw fluorescence reading): 12994
SfurOBP2; ligand concentration 8 (unit not given), replicate column 2 of 3
  Fluorescence competitive binding assay, OBP2 (raw fluorescence reading): 13858
SfurOBP2; ligand concentration 8 (unit not given), replicate column 3 of 3
  Fluorescence competitive binding assay, OBP2 (raw fluorescence reading): 14632
SfurOBP2; ligand concentration 10 (unit not given), replicate column 1 of 3
  Fluorescence competitive binding assay, OBP2 (raw fluorescence reading): 12524
SfurOBP2; ligand concentration 10 (unit not given), replicate column 2 of 3
  Fluorescence competitive binding assay, OBP2 (raw fluorescence reading): 13543
SfurOBP2; ligand concentration 10 (unit not given), replicate column 3 of 3
  Fluorescence competitive binding assay, OBP2 (raw fluorescence reading): 13950
SfurOBP2; ligand concentration 12 (unit not given), replicate column 1 of 3
  Fluorescence competitive binding assay, OBP2 (raw fluorescence reading): 11798
SfurOBP2; ligand concentration 12 (unit not given), replicate column 2 of 3
  Fluorescence competitive binding assay, OBP2 (raw fluorescence reading): 13085
SfurOBP2; ligand concentration 12 (unit not given), replicate column 3 of 3
  Fluorescence competitive binding assay, OBP2 (raw fluorescence reading): 12945
SfurOBP2; ligand concentration 14 (unit not given), replicate column 1 of 3
  Fluorescence competitive binding assay, OBP2 (raw fluorescence reading): 12191
SfurOBP2; ligand concentration 14 (unit not given), replicate column 2 of 3
  Fluorescence competitive binding assay, OBP2 (raw fluorescence reading): 12517
SfurOBP2; ligand concentration 14 (unit not given), replicate column 3 of 3
  Fluorescence competitive binding assay, OBP2 (raw fluorescence reading): 12178
SfurOBP2; ligand concentration 16 (unit not given), replicate column 1 of 3
  Fluorescence competitive binding assay, OBP2 (raw fluorescence reading): 11027
SfurOBP2; ligand concentration 16 (unit not given), replicate column 2 of 3
  Fluorescence competitive binding assay, OBP2 (raw fluorescence reading): 11256
SfurOBP2; ligand concentration 16 (unit not given), replicate column 3 of 3
  Fluorescence competitive binding assay, OBP2 (raw fluorescence reading): 11449
SfurOBP2; ligand concentration 18 (unit not given), replicate column 1 of 3
  Fluorescence competitive binding assay, OBP2 (raw fluorescence reading): 11299
SfurOBP2; ligand concentration 18 (unit not given), replicate column 2 of 3
  Fluorescence competitive binding assay, OBP2 (raw fluorescence reading): 11344
SfurOBP2; ligand concentration 18 (unit not given), replicate column 3 of 3
  Fluorescence competitive binding assay, OBP2 (raw fluorescence reading): 11251
SfurOBP2; ligand concentration 20 (unit not given), replicate column 1 of 3
  Fluorescence competitive binding assay, OBP2 (raw fluorescence reading): 11544
SfurOBP2; ligand concentration 20 (unit not given), replicate column 2 of 3
  Fluorescence competitive binding assay, OBP2 (raw fluorescence reading): 11076
SfurOBP2; ligand concentration 20 (unit not given), replicate column 3 of 3
  Fluorescence competitive binding assay, OBP2 (raw fluorescence reading): 11172
SfurOBP3; ligand concentration 2
  Fluorescence competitive binding assay, fluorescence intensity: 55523 and 54254 and 55950
SfurOBP3; ligand concentration 4
  Fluorescence competitive binding assay, fluorescence intensity: 52204 and 49599 and 49733
SfurOBP3; ligand concentration 6
  Fluorescence competitive binding assay, fluorescence intensity: 48530 and 49919 and 47140
SfurOBP3; ligand concentration 8
  Fluorescence competitive binding assay, fluorescence intensity: 48179 and 44521 and 46350
SfurOBP3; ligand concentration 10
  Fluorescence competitive binding assay, fluorescence intensity: 42323 and 44632 and 41414
SfurOBP3; ligand concentration 12
  Fluorescence competitive binding assay, fluorescence intensity: 39705 and 38987 and 37616
SfurOBP3; ligand concentration 14
  Fluorescence competitive binding assay, fluorescence intensity: 34880 and 34317 and 34633
SfurOBP3; ligand concentration 16
  Fluorescence competitive binding assay, fluorescence intensity: 32423 and 30011 and 29519
SfurOBP3; ligand concentration 18
  Fluorescence competitive binding assay, fluorescence intensity: 30169 and 30976 and 30764
SfurOBP3; ligand concentration 20
  Fluorescence competitive binding assay, fluorescence intensity: 29092 and 31304 and 30368
SfurOBP3; SfurOBP3
  binding affinity to SfurOBP3 (in words): high binding affinities
SfurOBP3; SfurOBP3, protein and 1-NPN both 2.0 µM, competitor 2-20 µM, read-out: IC50
  IC50: 19 µM
S. furcifera adults
  number of insects choosing hexane arm: 13
  number of insects choosing volatilies arm: 15
  number of insects failed (no choice): 12

Reference: article PMC6409085, “Three odorant-binding proteins are involved in the behavioral response of Sogatella furcifera to rice plant volatiles” (PeerJ, 2019)
